The values below come from US6160004A, “C-10 carbon-substituted artemisinin-like trioxane compounds having antimalarial, antiproliferative and antitumor activities” (priority 1998, dated 2000).

Series [1] has as its system chloroquine-sensitive P. falciparum (NF54). Put plainly: In vitro antimalarial activity ([3H]hypoxanthine incorporation). It is filed as cell-based.
A short description of series [2]: Water solubility at pH 7.4. It is filed as physicochemical. The conditions noted are these: pH 7.4, water. The method, then:
Often, solubility in water is a desirable feature of a new drug candidate. Since organic compounds bearing one or more carboxylic acid groups or phenolic groups are usually water soluble at physiological pH, we have prepared a series of 10-carbon-substituted trioxane carboxylic acids via alkene oxidation and ester saponification. Also, bisphenol (34) was prepared by hydrolysis of the corresponding bis-silyl ether.

Series [3] in a line: In vivo acute toxicity testing. The following applies: preliminary.
For a further series, the system named is malaria. Kind of series: In vivo antimalarial activity. Set-up: species or system rodents.
Another series can be described thus: Stability (hydrolysis). It is filed as physicochemical.
Series [4] concerns murine keratinocyte cell line PE. Put plainly: Growth inhibition of murine keratinocytes (MTT). It is filed as cell-based, murine (SENCAR mice). The conditions noted are these: 100 nanomolar. The method, then: To determine the inhibitory effect of the compositions of the present invention on cell proliferation, screening assays were performed on a murine keratinocyte cell line PE. Cell line PE was chosen for its particular sensitivity to the induction of ornithine decarboxylase (ODC) activity by the extensively characterized tumor promoter TPA. […] PE cell culture medium consisted of Eagle's minimal essential medium without calcium chloride (Whittaker Bioproducts, Walkersville, Mass.) supplemented with 8% chelexed fetal calf serum and 1% antibiotic-antimycotic (Gibco BRL) and the addition of CaCl2 to 0.05 mM Ca^++.
MTT [3-(4,5-dimethylthiazol-2-yl)-2,5-diphenyltetraxolium bromide] was purchased from Sigma Chemical Co. (St. Louis, Mo.), and TPA was supplied by L.C. Services (Woburn, Mass.). L-[^14 C]omithine (56 μCi/mol) was from Amersham/Searle Corp. (Arlington Heights, Ill.). Chemical solvents used in all assays of biological activity were of the highest grade commercially available.
Growth Inhibition. Growth curves, shown in FIGS. 1-5, for PE cells treated with calcitriol and the C-10 carbon-substituted dimers 38, 39, 43, 44, 45, 47 and 48, and monomer 27 generated by assay for the reduction of the tetrazolium-based compound MTT, see Charmichael, et al., Cancer Res., 47:936-942 (1987). […] PE cells were seeded at a density of 5,000 cells/well in 50 μL of medium into 96-well microtiter plates. Twelve hours later, the medium was removed, and cells were treated with 100 μL of fresh medium into which the appropriate amount of calcitriol or analog dissolved in dimethyl sulfoxide (DMSO) had been added, with the concentration of DMSO held constant at 0.1%. […] At 24-hour intervals following the initial treatment of the cells with compounds, 0.1 mg (50 μL of a 2 mg/mL solution) of MTT was added to each well. After 4 hours, the MTT was removed and DMSO added to dissolve the blue formazan dye. Using a microtiter plate reader, the A505 was then determined and cell number calculated from blank-subtracted absorbance values.

For series [5], the system named is Ehrlich ascites tumor (EAT) cells. The conditions noted are these: cited from earlier work.
In a further series the test system is P. berghei. The conditions noted are these: cited from earlier work.
[6] abbreviates: Plasmodium falciparum, chloroquine-sensitive P. falciparum NF54, in vitro.
The mark [7] stands for this setting: sc; read-out: ED50 subcutaneous.
[8] abbreviates: sc; read-out: ED90 subcutaneous.

Broadly, the IC50 is the concentration that gives 50% inhibition. What is called solubility is the concentration that dissolves in the medium under given conditions. Higher therefore signals much dissolved substance. For orientation: ED50 means the dose at which the effect has come halfway, by size or by number of responders.

≈ marks a conversion by molar mass, not a printed value. Read-outs that look alike come from different tables or passages of the source. Where only a bound is given, the exact number is not on record here.

As to `CCOC(=O)Cn1cccc1[C@@H]1O[C@@H]2O[C@@]3(C)CC[C@H]4[C@H](C)CC[C@@H]([C@H]1C)[C@@]24OO3` [Monomer 16d, 10α-(1'-(Ethoxycarbonylmethyl)pyrrol-2'-yl)-10-deoxoartemisinin], the IC50 in series [1] (setting [6]) was found to be 9.1 nM.

In series [2], `CC1CCC2C(C)C(C(=O)O)OC3OC4(C)CCC1C32OO4` (stereo not drawn) [Monomer 33] registered a solubility of 30 mM (≈ 9370 µg/mL).

In the case of `C[C@H]1[C@H](c2ccc(C(C)(C)C)o2)O[C@@H]2O[C@@]3(C)CC[C@H]4[C@H](C)CC[C@@H]1[C@@]24OO3` [Monomer 17d], the IC50 in series [1] (setting [6]) came to 10 nM.

In the case of `CC1CCC2C(C)C(c3ccco3)OC3OC4(C)CCC1C32OO4` (stereo not drawn) [Monomer 17a, 10α-(2'-Furyl)-10-deoxoartemisinin], the “in vivo acute toxicity testing” value in series [3] is “relative safety”. Further, the ED50 amounted to 9.5 mg/kg in the series with malaria (po; read-out: ED50 oral) and 1.2 mg/kg in the series with malaria (setting [7]). For the same compound, the figures for the ED90 in the series with malaria (po; read-out: ED90 oral) and with malaria (setting [8]) were 24 mg/kg and 2 mg/kg, respectively. Further, the stability entry in “Stability (hydrolysis)” is reported as “Hydrolytically stable”. Moreover, the “in vitro antimalarial potency relative to artemisinin” value in series [1] (P. falciparum NF54) is on record as “more potent than artemisinin”. This compound also came in with an IC50 in series [1] (setting [6]) of 1.4 nM.

For `CC1CCC2C(C)C(c3ccc(C(c4ccccc4)c4ccc(C5OC6OC7(C)CCC8C(C)CCC(C5C)C68OO7)n4C)n3C)OC3OC4(C)CCC1C32OO4` (stereo not drawn) [Dimer 48], the “antiproliferative activity relative to calcitriol” value in series [4] was “at least as antiproliferative as calcitriol”. As to `C[C@H]1[C@H](c2cccn2Cc2ccccc2)O[C@@H]2O[C@@]3(C)CC[C@H]4[C@H](C)CC[C@@H]1[C@@]24OO3` [Monomer 16b], the 50% inhibitory concentration (IC50) in series [1] (setting [6]) stood at 16 nM.

Consider `C[C@@H]1CC[C@H]2[C@@H](C)C(OC3O[C@@H]4O[C@@]5(C)CC[C@H]6[C@H](C)CC[C@@H]([C@H]3C)[C@@]46OO5)O[C@@H]3O[C@@]4(C)CC[C@@H]1[C@]32OO4` (stereo partly drawn) [II-7], for which the IC50 in series [5] (MTT, growth inhibition) is 1400 nM. Besides, in series [5], the “cytotoxicity relative to artemisinin (times more cytotoxic)” value was “approximately twenty-two” and the “cytotoxicity relative to dihydroartemisinin (times more cytotoxic)” value is “sixty”. In addition, in the series with P. berghei (P. berghei-infected mice, parasitemia 90 percent suppressed), the SD90 was 10 mg/kg. Also, in the series with P. berghei (P. berghei-infected mice), the “in vivo potency relative to artemisinin” value is “less potent than artemisinin”. On to `COc1ccc(C2OC3OC4(C)CCC5C(C)CCC(C2C)C35OO4)c(OC)c1` (stereo not drawn) [Monomer 13a, 10α-(1',3'-Dimethoxyphenyl)deoxoartemisininin], for which, in series [1] (P. falciparum NF54), the “in vitro antimalarial potency relative to artemisinin” value is listed as “more potent than artemisinin”. The compound further returned an IC50 in series [1] (setting [6]) of 4.2 nM.

For `COc1ccc([C@@H]2O[C@@H]3O[C@@]4(C)CC[C@H]5[C@H](C)CC[C@@H]([C@H]2C)[C@@]35OO4)c(OC)c1` [Monomer 13], the half-inhibitory concentration (IC50) in series [1] (survey data (preliminary), P. falciparum NF54) turned out to be 8.9 nM. Take `COc1cc(OC)c(C2OC3OC4(C)CCC5C(C)CCC(C2C)C35OO4)cc1C1OC2OC3(C)CCC4C(C)CCC(C1C)C24OO3` (stereo not drawn) [Dimer 43]: in series [4], the “antiproliferative activity relative to calcitriol” value is listed as “at least as antiproliferative as calcitriol”. For `COc1cc(OC)c([C@@H]2O[C@@H]3O[C@@]4(C)CC[C@H]5[C@H](C)CC[C@@H]([C@H]2C)[C@@]35OO4)c(OC)c1` [Monomer 14], the IC50 in series [1] (setting [6]) stood at 7.8 nM. Regarding `COc1ccc2cc(C3OC4OC5(C)CCC6C(C)CCC(C3C)C46OO5)c(OC)cc2c1` (stereo not drawn) [Monomer 15, 10α-(2',7'-dimethoxynaphth-3'-yl)deoxoartemisinin], the midpoint of inhibition in series [1] (setting [6]), the IC50, lay at 9 nM.

In series [1] (setting [6]), `CC1CCC2C(C)C(c3cn(C)c4ccccc34)OC3OC4(C)CCC1C32OO4` (stereo not drawn) [Monomer 19] had an IC50 of 4 nM. Same read-out and setting: under `CCc1ccc([C@@H]2O[C@@H]3O[C@@]4(C)CC[C@H]5[C@H](C)CC[C@@H]([C@H]2C)[C@@]35OO4)o1` [Monomer 17c] stands 8.6 nM.

In the case of `C[C@H]1[C@H](c2ccc(O)cc2O)O[C@@H]2O[C@@]3(C)CC[C@H]4[C@H](C)CC[C@@H]1[C@@]24OO3` [Monomer 13d], in series [2], the solubility was < 3 mM. In series [1] (setting [6]), `C=CCOc1ccc([C@@H]2O[C@@H]3O[C@@]4(C)CC[C@H]5[C@H](C)CC[C@@H]([C@H]2C)[C@@]35OO4)c(OCC=C)c1` [Monomer 13b] returned an IC50 of 6.6 nM. In the case of `CC1CCC2C(C)C(C#Cc3ccc(C#CC4OC5OC6(C)CCC7C(C)CCC(C4C)C57OO6)cc3)OC3OC4(C)CCC1C32OO4` (stereo not drawn) [Dimer 45, C-10 p-Diethynylbenzene 10-deoxoartemisinin Dimer], the “antiproliferative activity relative to calcitriol” value in series [4] is given as “at least as antiproliferative as calcitriol”. Take `CC1CCC2C(C)C(c3cccn3CC(=O)O)OC3OC4(C)CCC1C32OO4` (stereo not drawn) [Monomer 16e]: the solubility in series [2] was found to be 10 mM (≈ 3910 µg/mL). As for `CC1CCC2C(C)C(c3ccc(C4OC5OC6(C)CCC7C(C)CCC(C4C)C57OO6)o3)OC3OC4(C)CCC1C32OO4` (stereo not drawn) [Dimer 47], the “antiproliferative activity relative to calcitriol” value in series [4] is “at least as antiproliferative as calcitriol”.

On to `CCN(CC)CCCC(C)Nc1ccnc2cc(Cl)ccc12` (stereo not drawn) [Chloroquine, reference compound], for which the ED50 with malaria (sc, read-out: ED50 subcutaneous) came out at 1.8 mg/kg. Moreover, the ED90 with malaria (sc, read-out: ED90 subcutaneous) turned out to be 3.1 mg/kg.

Regarding `C[C@H]1[C@H](c2cccs2)O[C@@H]2O[C@@]3(C)CC[C@H]4[C@H](C)CC[C@@H]1[C@@]24OO3` [Monomer 18], the IC50 in series [1] (setting [6]) came to 5.1 nM. With `Cc1ccc([C@@H]2O[C@@H]3O[C@@]4(C)CC[C@H]5[C@H](C)CC[C@@H]([C@H]2C)[C@@]35OO4)o1` [Monomer 17b], the “in vivo acute toxicity testing” value in series [3] is listed as “relative safety”. The ED50 in the series on malaria (po; read-out: ED50 oral) is 15.5 mg/kg; in the series on malaria (setting [7]), 0.9 mg/kg. Also, the results for the ED90 in the series with malaria (po; read-out: ED90 oral) and in the series with malaria (setting [8]) were 43 mg/kg and 2 mg/kg, respectively. The stability result in “Stability (hydrolysis)” is on record as “Hydrolytically stable”. This compound gave an IC50 in series [1] (setting [6]) of 5.2 nM. Regarding `CC1CCC2C(C)C(c3cccn3C)OC3OC4(C)CCC1C32OO4` (stereo not drawn) [Monomer 16a, 10α-(N-methylpyrrol-2'-yl)deoxoartemisinin], the ED50 with malaria (po; read-out: ED50 oral) was 4.5 mg/kg; in the series on malaria (setting [7]), 0.7 mg/kg. Besides, the results for the ED90 in the series with malaria (po; read-out: ED90 oral) and with malaria (setting [8]) were 8.5 mg/kg and 1.2 mg/kg, respectively. In addition, the stability entry in the series “Stability (hydrolysis)” is listed as “Hydrolytically stable”. Moreover, the “in vitro antimalarial potency relative to artemisinin” value in series [1] (P. falciparum NF54) was “more potent than artemisinin”. Also, it took 4.6 nM to reach half-maximal inhibition in series [1] (setting [6]) (IC50). With `CC1CCC2C(C)C(C#Cc3cccc(C#CC4OC5OC6(C)CCC7C(C)CCC(C4C)C57OO6)c3)OC3OC4(C)CCC1C32OO4` (stereo not drawn) [Dimer 44], the “antiproliferative activity relative to calcitriol” value in series [4] is reported as “at least as antiproliferative as calcitriol”. With `CO[C@H]1O[C@@H]2O[C@@]3(C)CC[C@H]4[C@H](C)CC[C@@H]([C@H]1C)[C@@]24OO3` [Artemether, reference compound], the “in vitro antimalarial potency relative to artemisinin” value in series [1] (P. falciparum NF54) is on record as “more potent than artemisinin”. As to `CC1=CO[C@@H]2O[C@@]3(C)CC[C@H]4[C@H](C)CC[C@@H]1[C@@]24OO3` [olefinic compound III], the “activity against P. berghei-infected mice” value with P. berghei was “inactive”.
